Test [1] deals with EGFR Exon 20 INSNPH Ba/F3 (Homo sapiens, UniProt P00533, DUP771-773, cells depend on it). Briefly: EGFR Exon 20 INSNPH Ba/F3 CellTiter-Glo. In kind it is cell-based. As to conditions: CellTiter-Glo, 72 h, read-out: EGFR Exon 20 INSNPH Ba/F3 CTG IC50. The method in brief:
(§1)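 Using a 72 h viability readout, compound-treated Ba/F3 cells (pre-incubated 24 h after seeding) were lysed with CellTiter-Glo reagent and luminescence recorded. Potency was expressed as IC50 from a fitted dose–response curve.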
A general note: Cellular ATP, detected with luciferase, serves as a proxy for viable cell number.

For another test, the target named is T1, HER2 INS YVMA (Homo sapiens, UniProt P04626, INS775YVMA).
T1 construct: purchased DPF
In words: Lance Kinase Activity Assay, HER2 INS YVMA (Her2 Exon 20 INSYVMA Lance). In kind it is biochemical. As to conditions: biochemical Lance assay. The procedure, abridged:
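Kinase phosphorylates a ULight-labelled peptide substrate; Eu anti-phospho antibody gives TR-FRET (ex 340 nm, em 665/615 nm). Compounds in 1:3 serial dilution over 8 steps, reaction started with ATP, 1 h at room temperature, stopped with EDTA-containing detection mix for 1 h. IC50 from sigmoidal dose-response curves.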

The target of another test is EGFR T790ML858R (Homo sapiens, UniProt P00533, L858R/T790M). Briefly: EGFR T790ML858R Lance assay. In kind it is biochemical. Here is the method:
(§2) Inhibition is indicated as […] [nM] (“−”=not measured). Compounds having an activity designated as “A” provided an IC50≤100 nM; compounds having an activity designated as “B” provided an 100 nM<IC50≤500 nM; compounds having an activity designated as “C” provided an 500 nM<IC50≤1000 nM; compounds having an activity designated as “D” provided an 1000 nM<IC50≤100000 nM; and compounds having an activity designated as “E” provided an IC50>10000 nM.

A further test deals with H1975. Briefly: H1975 CellTiter-Glo. The class given is cell-based. Particulars: Homo sapiens, NCI-H1975; 72 h compound incubation; read-out: H1975 CTG IC50. The method in brief: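 Antiproliferative IC50 values come from a 72 h treatment of cultured cells, measured by CellTiter-Glo ATP luminescence. Only runs with a Z′-factor of at least 0.5, calculated from 16 vehicle and 16 Staurosporine (10 μM) control wells, are reported.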

The subject of a further test is A431. In words: A431 CellTiter-Glo. The class given is cell-based. As to conditions: Homo sapiens, A-431; 72 h compound incubation; read-out: A431 CTG IC50. On the procedure:
2. Measurement of Cellular Activity
The CellTiter-Glo Luminescent Cell Viability Assay (Promega) is a homogeneous method of determining the number of viable cells in culture. It is based on quantification of ATP, indicating the presence of metabolically active cells. Cells are seeded on day 1 at cell numbers that assure assay linearity and optimal signal intensity. After incubation for 24 h in humidified chambers at 37° C. and 5% CO2, compounds in DMSO are added at different concentrations. Cells are further incubated for 72 h at 37° C. and 5% CO2. Cells treated with the compound vehicle DMSO are used as positive controls and cells treated with 10 μM Staurosporine serve as negative controls. At day 5 the CellTiter Glo Reagent is prepared according to the instructions of the kit (Promega Inc.): Reagent is mixed 1:1 with cell culture medium. Thereon, mixture and assay plates are equilibrated at room temperature for 20 min. Equal volumes of the reagent-medium-mixture is added to the volume of culture medium present in each well. The plates are mixed at ˜200 rpm for 2 minutes on an orbital shaker. The microplates are then incubated at room temperature for 10 minutes for stabilization of the luminescent signal. Following incubation the luminescence is recorded on a Victor microplate reader (Perkin Elmer) using a 200 ms integration time. The data is then analyzed with Excel using the XLFIT Plugin (dose response Fit 205) for IC50-determination. As quality control the Z′-factor is calculated from 16 positive and negative control values. Only assay results showing a Z′-factor ≥0.5 are used for further analysis.
as §2

A further test has as its target EGFR wt (Homo sapiens, UniProt P00533). Briefly: EGFR wt Lance assay. The class given is biochemical. Here is the method: as §2
Test [2] has as its target Her2 Exon 20 INSYVMA Ba/F3 (Homo sapiens, UniProt P04626, DUP772-775, cells depend on it). In words: Her2 Exon 20 INSYVMA Ba/F3 CellTiter-Glo. As to conditions: CellTiter-Glo, 72 h, read-out: Her2 Exon 20 INSYVMA Ba/F3 CTG IC50. The class given is cell-based. The procedure, abridged:
as §1

pIC50: −log10 of the molar value.

EGFR T790ML858R, sequence (P00533 25-1210 T790M/L858R): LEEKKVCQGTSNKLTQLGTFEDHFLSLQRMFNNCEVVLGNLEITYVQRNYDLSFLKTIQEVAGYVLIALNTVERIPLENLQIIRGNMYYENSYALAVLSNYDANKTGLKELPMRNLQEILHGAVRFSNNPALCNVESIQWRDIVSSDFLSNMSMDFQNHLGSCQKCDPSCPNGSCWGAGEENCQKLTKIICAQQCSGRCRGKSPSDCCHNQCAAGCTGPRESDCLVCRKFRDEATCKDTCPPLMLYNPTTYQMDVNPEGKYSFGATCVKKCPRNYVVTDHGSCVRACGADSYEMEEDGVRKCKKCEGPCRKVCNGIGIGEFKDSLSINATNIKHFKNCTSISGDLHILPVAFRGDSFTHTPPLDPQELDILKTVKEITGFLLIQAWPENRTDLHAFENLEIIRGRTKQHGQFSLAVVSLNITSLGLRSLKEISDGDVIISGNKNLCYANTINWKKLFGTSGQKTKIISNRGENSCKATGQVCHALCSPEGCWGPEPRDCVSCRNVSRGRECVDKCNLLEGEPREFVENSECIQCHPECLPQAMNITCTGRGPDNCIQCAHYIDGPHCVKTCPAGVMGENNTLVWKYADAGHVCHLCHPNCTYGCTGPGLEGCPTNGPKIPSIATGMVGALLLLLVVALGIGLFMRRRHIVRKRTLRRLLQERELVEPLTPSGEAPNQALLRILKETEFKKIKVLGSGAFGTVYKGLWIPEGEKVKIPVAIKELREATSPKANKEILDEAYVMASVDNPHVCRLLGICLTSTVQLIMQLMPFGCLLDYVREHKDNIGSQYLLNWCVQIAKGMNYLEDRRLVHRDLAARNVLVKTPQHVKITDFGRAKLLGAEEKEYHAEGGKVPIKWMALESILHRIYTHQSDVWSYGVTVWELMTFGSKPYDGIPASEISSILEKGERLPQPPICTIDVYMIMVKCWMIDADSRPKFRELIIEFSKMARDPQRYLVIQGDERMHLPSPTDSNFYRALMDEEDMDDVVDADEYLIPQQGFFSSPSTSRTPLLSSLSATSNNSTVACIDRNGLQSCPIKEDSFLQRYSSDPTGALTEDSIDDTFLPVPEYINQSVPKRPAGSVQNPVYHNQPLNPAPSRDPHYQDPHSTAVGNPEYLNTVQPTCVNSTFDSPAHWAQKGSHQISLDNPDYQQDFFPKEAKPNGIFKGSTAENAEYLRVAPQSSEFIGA
EGFR wt, sequence (P00533 25-1210): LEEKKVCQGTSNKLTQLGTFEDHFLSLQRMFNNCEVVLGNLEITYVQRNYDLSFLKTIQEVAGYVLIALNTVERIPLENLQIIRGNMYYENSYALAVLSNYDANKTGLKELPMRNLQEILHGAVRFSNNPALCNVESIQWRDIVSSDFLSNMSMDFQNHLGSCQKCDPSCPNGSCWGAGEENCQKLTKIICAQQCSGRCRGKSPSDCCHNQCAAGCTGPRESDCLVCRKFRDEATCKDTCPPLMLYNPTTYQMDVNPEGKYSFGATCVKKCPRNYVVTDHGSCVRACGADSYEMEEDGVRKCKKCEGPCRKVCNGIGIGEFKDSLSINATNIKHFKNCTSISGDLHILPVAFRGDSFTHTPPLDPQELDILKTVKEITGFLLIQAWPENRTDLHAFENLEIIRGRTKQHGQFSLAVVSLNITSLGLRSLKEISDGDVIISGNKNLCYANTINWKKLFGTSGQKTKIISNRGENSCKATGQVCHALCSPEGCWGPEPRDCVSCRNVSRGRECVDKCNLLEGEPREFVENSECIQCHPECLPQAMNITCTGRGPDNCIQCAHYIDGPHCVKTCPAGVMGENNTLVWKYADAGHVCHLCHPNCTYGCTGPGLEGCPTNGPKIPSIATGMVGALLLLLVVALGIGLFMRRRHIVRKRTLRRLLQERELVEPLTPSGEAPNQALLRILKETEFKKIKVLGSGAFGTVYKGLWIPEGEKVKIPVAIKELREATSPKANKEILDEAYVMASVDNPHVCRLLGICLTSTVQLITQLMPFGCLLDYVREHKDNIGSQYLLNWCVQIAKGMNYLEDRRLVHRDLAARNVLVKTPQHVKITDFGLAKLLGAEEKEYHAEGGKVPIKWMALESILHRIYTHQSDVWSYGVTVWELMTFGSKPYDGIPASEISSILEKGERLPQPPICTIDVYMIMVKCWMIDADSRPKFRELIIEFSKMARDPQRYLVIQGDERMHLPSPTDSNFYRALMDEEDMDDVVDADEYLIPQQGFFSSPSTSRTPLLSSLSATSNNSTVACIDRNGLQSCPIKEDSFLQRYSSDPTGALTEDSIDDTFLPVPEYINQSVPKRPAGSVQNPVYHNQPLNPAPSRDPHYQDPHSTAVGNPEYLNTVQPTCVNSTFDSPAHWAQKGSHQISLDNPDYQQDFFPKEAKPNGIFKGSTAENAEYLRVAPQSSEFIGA
Her2 Exon 20 INSYVMA Ba/F3, sequence (P04626 with tags, fused parts or gaps DUP772-775): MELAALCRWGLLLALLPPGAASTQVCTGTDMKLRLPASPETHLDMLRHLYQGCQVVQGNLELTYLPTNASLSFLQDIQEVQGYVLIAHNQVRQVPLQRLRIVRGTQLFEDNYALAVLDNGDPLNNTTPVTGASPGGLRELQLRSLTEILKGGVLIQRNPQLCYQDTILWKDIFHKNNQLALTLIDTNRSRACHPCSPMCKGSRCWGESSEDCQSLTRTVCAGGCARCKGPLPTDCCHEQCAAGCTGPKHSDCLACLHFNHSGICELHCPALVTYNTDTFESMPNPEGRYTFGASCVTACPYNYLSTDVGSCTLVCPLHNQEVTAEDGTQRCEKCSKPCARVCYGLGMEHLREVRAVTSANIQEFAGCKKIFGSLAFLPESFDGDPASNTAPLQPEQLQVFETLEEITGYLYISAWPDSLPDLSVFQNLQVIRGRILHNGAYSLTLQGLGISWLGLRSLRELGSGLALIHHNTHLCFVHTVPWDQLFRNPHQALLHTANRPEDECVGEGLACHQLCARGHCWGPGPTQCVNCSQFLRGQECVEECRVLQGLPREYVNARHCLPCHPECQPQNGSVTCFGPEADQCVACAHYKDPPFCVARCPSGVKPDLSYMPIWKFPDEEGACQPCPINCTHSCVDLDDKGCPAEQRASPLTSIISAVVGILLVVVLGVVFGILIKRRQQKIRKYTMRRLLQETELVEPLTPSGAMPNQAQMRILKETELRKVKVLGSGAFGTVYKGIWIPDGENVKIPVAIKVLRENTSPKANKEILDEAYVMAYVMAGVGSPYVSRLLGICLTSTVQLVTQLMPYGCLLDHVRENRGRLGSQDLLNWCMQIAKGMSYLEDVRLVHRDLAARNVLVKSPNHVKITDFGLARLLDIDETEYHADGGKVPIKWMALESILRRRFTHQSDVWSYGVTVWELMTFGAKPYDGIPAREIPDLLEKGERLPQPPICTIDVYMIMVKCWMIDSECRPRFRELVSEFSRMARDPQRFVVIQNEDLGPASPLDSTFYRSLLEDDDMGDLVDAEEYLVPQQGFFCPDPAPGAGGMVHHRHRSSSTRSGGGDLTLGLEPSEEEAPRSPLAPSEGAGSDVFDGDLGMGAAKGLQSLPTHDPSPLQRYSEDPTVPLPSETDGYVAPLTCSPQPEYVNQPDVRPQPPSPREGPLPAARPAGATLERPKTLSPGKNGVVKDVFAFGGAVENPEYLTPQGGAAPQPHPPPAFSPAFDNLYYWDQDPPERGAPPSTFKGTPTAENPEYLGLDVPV
EGFR Exon 20 INSNPH Ba/F3, sequence (P00533 with tags, fused parts or gaps DUP771-773): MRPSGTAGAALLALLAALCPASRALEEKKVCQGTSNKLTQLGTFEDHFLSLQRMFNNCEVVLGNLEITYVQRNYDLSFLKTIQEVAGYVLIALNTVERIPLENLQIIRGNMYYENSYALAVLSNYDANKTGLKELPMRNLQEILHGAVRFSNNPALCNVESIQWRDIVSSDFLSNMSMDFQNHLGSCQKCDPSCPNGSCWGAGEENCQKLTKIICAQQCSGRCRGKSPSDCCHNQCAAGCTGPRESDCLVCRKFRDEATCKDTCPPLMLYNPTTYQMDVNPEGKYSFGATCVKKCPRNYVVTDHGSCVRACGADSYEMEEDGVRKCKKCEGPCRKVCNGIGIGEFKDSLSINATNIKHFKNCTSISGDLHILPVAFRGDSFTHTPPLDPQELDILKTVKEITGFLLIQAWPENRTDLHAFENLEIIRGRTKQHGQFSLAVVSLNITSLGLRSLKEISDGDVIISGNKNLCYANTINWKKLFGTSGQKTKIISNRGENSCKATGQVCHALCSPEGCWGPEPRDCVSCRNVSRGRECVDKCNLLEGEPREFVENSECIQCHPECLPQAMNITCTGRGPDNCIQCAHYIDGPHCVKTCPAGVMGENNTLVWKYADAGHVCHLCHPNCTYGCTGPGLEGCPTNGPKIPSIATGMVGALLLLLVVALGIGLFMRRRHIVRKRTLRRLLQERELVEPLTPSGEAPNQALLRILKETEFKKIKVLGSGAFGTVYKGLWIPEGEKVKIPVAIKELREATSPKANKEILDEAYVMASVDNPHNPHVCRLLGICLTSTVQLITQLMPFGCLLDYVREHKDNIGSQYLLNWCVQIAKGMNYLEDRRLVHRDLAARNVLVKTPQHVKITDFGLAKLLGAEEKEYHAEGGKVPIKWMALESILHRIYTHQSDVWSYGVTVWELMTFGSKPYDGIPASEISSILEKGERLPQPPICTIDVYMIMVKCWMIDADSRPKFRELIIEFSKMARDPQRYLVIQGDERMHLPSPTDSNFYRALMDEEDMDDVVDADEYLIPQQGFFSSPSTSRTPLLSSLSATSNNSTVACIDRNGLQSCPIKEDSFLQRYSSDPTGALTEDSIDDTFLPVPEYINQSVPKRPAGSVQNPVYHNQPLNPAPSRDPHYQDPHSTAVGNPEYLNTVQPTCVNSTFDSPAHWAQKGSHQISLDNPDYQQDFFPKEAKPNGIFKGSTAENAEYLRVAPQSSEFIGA

The pIC50 is the IC50 on a negative log10 scale, so that one unit is a factor of ten. Take `C=CC(=O)Nc1cc(-c2c(-c3ccc(N4CCN(C)CC4)cc3)[nH]c3ncc(C(=O)NCc4cccnc4)cc23)ccc1C` [Example 128, 3-(3-acrylamido-4-methylphenyl)-2-(4-(4-methylpiperazin-1-yl)phenyl)-N-(pyridin-3-ylmethyl)-1H-pyrrolo[2,3-b]pyridine-5-carboxamide]: the GI50 in test [1] and in test [2] was 1000 to 10000 nM each time. For the same molecule, the pIC50 is at least 7.00 against HER2 INS YVMA; at least 7.00 against EGFR T790ML858R; 4.00 to 6.00 in the test with H1975; 4.00 to 6.00 with A431; at least 7.00 against EGFR wt.
With `C=CC(=O)Nc1cc(-c2c(-c3ccc(N4CCN(C)CC4)cc3)[nH]c3ncc(C(=O)NCC4CCN(C)CC4)cc23)ccc1C` [Example 129, 3-(3-acrylamido-4-methylphenyl)-2-(4-(4-methylpiperazin-1-yl)phenyl)-N-((1-methylpiperidin-4-yl)methyl)-1H-pyrrolo[2,3-b]pyridine-5-carboxamide], the GI50 in test [1] and in test [2] was above 10000 nM in each case. The pIC50 on HER2 INS YVMA was 6.00 to 6.30; on EGFR T790ML858R, 6.30 to 7.00; with H1975, below 5.00; in the test with A431 it was below 5.00; against EGFR wt, 6.30 to 7.00.
As to `C=CC(=O)Nc1cc(-c2c(-c3ccc(N4CCN(C)CC4)cc3)[nH]c3ncc(C(=O)NCc4nncn4C)cc23)ccc1C` [Example 130, 3-(3-acrylamido-4-methylphenyl)-N-((4-methyl-4H-1,2,4-triazol-3-yl)methyl)-2-(4-(4-methylpiperazin-1-yl)phenyl)-1H-pyrrolo[2,3-b]pyridine-5-carboxamide], the GI50 in test [1] and in test [2] was above 10000 nM each time. Further, the negative-log IC50 (pIC50) at HER2 INS YVMA is 6.30 to 7.00; on EGFR T790ML858R, 6.30 to 7.00; with H1975, below 5.00; in the test with A431, below 5.00; on EGFR wt, at least 7.00.
On to `C=CC(=O)Nc1cc(-c2c(-c3ccc(N4CCN(C)CC4)cc3)[nH]c3ncc(C(=O)NCc4ccc(F)cc4F)cc23)ccc1C` [Example 131, 3-(3-acrylamido-4-methylphenyl)-N-(2,4-difluorobenzyl)-2-(4-(4-methylpiperazin-1-yl)phenyl)-1H-pyrrolo[2,3-b]pyridine-5-carboxamide], for which the GI50 lay in the range of 1000 to 10000 nM in test [1] and 500 to 1000 nM in test [2]. For the same molecule, the pIC50 at HER2 INS YVMA is 6.30 to 7.00; against EGFR T790ML858R, 6.00 to 6.30; in the test on H1975 it was 4.00 to 6.00; in the test on A431, 4.00 to 6.00; on EGFR wt, at least 7.00.
For `C=CC(=O)Nc1cc(-c2c(-c3ccc(N4CCN(C)CC4)cc3)[nH]c3ncc(C(=O)NCc4ccc(NC(C)=O)cc4)cc23)ccc1C` [Example 132, N-(4-acetamidobenzyl)-3-(3-acrylamido-4-methylphenyl)-2-(4-(4-methylpiperazin-1-yl)phenyl)-1H-pyrrolo[2,3-b]pyridine-5-carboxamide], the GI50 in test [1] and in test [2] was above 10000 nM in each case. Moreover, the pIC50 was 6.00 to 6.30 on HER2 INS YVMA; 6.30 to 7.00 against EGFR T790ML858R; below 5.00 in the test with H1975; below 5.00 in the test with A431; at least 7.00 on EGFR wt.
In the case of `C=CC(=O)Nc1cc(-c2c(-c3ccc(N4CCN(C)CC4)cc3)[nH]c3ncc(C(=O)NCc4cccc(C(N)=O)c4)cc23)ccc1C` [Example 133, 3-(3-acrylamido-4-methylphenyl)-N-(3-carbamoylbenzyl)-2-(4-(4-methylpiperazin-1-yl)phenyl)-1H-pyrrolo[2,3-b]pyridine-5-carboxamide], the GI50 in test [1] and in test [2] was above 10000 nM throughout. Besides, the pIC50 is 6.30 to 7.00 against HER2 INS YVMA; 6.30 to 7.00 against EGFR T790ML858R; below 5.00 with H1975; below 5.00 with A431; at least 7.00 at EGFR wt.
Regarding `C=CC(=O)Nc1cc(-c2c(-c3ccc(N4CCN(C)CC4)cc3)[nH]c3ncc(C(=O)OC4CCC4)cc23)ccc1C` [Example 136, cyclobutyl 3-(3-acrylamido-4-methylphenyl)-2-(4-(4-methylpiperazin-1-yl)phenyl)-1H-pyrrolo[2,3-b]pyridine-5-carboxylate], the GI50 in test [1] and in test [2] was 100 to 500 nM throughout. Besides, the pIC50 against HER2 INS YVMA was at least 7.00; against EGFR T790ML858R it was at least 7.00; in the test with H1975 it was 6.30 to 7.00; in the test on A431, 4.00 to 6.00; against EGFR wt, at least 7.00.
Regarding `C=CC(=O)Nc1cc(-c2c(-c3ccc(N4CCN(C)CC4)cc3)[nH]c3ncc(C(=O)OC4CCCCC4)cc23)ccc1C` [Example 137, cyclohexyl 3-(3-acrylamido-4-methylphenyl)-2-(4-(4-methylpiperazin-1-yl)phenyl)-1H-pyrrolo[2,3-b]pyridine-5-carboxylate], the GI50 in test [1] and in test [2] was 500 to 1000 nM each time. The pIC50 is 6.30 to 7.00 at HER2 INS YVMA; at least 7.00 against EGFR T790ML858R; 6.30 to 7.00 with H1975; 4.00 to 6.00 in the test with A431; at least 7.00 at EGFR wt.
Regarding `C=CC(=O)Nc1cc(-c2c(-c3ccc(N4CCN(C)CC4)cc3)[nH]c3ncc(C(=O)OC4CCCC4)cc23)ccc1C` [Example 139, cyclopentyl 3-(3-acrylamido-4-methylphenyl)-2-(4-(4-methylpiperazin-1-yl)phenyl)-1H-pyrrolo[2,3-b]pyridine-5-carboxylate], the GI50 in test [1] and in test [2] was 500 to 1000 nM each time. Also, the pIC50 on HER2 INS YVMA is 6.30 to 7.00; at EGFR T790ML858R it was at least 7.00; in the test on H1975, 6.30 to 7.00; in the test on A431 it was 4.00 to 6.00; against EGFR wt, at least 7.00.
For `C=CC(=O)Nc1cc(-c2c(-c3ccc(N4CCN(C)CC4)cc3)[nH]c3ncc(C(=O)OCCOC)cc23)ccc1C` [Example 140, 2-methoxyethyl 3-(3-acrylamido-4-methylphenyl)-2-(4-(4-methylpiperazin-1-yl)phenyl)-1H-pyrrolo[2,3-b]pyridine-5-carboxylate], the GI50 in test [1] and in test [2] was 100 to 500 nM throughout. The pIC50 against HER2 INS YVMA is at least 7.00; against EGFR T790ML858R, at least 7.00; in the test on H1975, 6.30 to 7.00; with A431, 4.00 to 6.00; at EGFR wt, at least 7.00.
With `C=CC(=O)Nc1cc(-c2c(-c3ccc(N4CCN(C)CC4)cc3)[nH]c3ncc(C(=O)OC4COC4)cc23)ccc1C` [Example 141, oxetan-3-yl 3-(3-acrylamido-4-methylphenyl)-2-(4-(4-methylpiperazin-1-yl)phenyl)-1H-pyrrolo[2,3-b]pyridine-5-carboxylate], the GI50 in test [1] and in test [2] was 500 to 1000 nM each time. Further, the pIC50 against HER2 INS YVMA is at least 7.00; on EGFR T790ML858R, at least 7.00; in the test with H1975, 6.30 to 7.00; in the test with A431, 4.00 to 6.00; against EGFR wt, at least 7.00.
Consider `C/C=C/C(=O)Nc1cc(-c2c(-c3ccc(N4CCN(C)CC4)cc3)[nH]c3nccc(Cl)c23)ccc1C` [Example 142, (E)-N-(5-(4-chloro-2-(4-(4-methylpiperazin-1-yl)phenyl)-1H-pyrrolo[2,3-b]pyridin-3-yl)-2-methylphenyl)but-2-enamide 2,2,2-trifluoroacetate], for which the GI50 in test [1] and in test [2] was 1000 to 10000 nM in each case. Also, the negative-log IC50 (pIC50) was 6.00 to 6.30 at HER2 INS YVMA; at least 7.00 against EGFR T790ML858R; 6.30 to 7.00 in the test with H1975; 4.00 to 6.00 in the test on A431; at least 7.00 against EGFR wt.

(Values after patent publication US20220370440A1 (Lead Discovery Center GmbH, priority 2018, published 2022).)
